In brackets after ≈: the same amount, converted by molar mass. Non-standard residues stand in square brackets, D forms with d. Residues, ends and D or L forms follow the SMILES beside them. *: point of attachment. Galloyl = O=C(c1cc(O)c(O)c(O)c1)*; Orn = NCCC[CH](N)C(=O)O; Dab = NCC[CH](N)C(=O)O; Dap = NC[C@H](N)C(=O)O
Assays:
Set-up in all cases: species or system human
[1] = tested on: UEA-1 binding sites on Caco-2 cell membrane preparations; test: Single tier competition assay: inhibition of biotinylated UEA-1 binding, compound and biotinylated UEA-1 incubated together; conditions: for Avg % Inhibtion: Single Tier Assay, library MSI 26
Procedure, shortened: (§1)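 Plates coated with Caco-2 membrane preparation (10 μg/ml, carbonate buffer pH 9.6) and BSA-blocked. Single tier: compound and biotinylated UEA-1 incubated together overnight. Two tier: compound incubated overnight with membranes first, biotinylated UEA-1 added next. Bound UEA-1 detected by streptavidin-HRP/OPD, OD490.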

[2] = tested on: UEA-1 binding sites on Caco-2 cell membrane preparations; test: Two tier competition assay: compound incubated alone with membranes, biotinylated UEA-1 added in next step; conditions: for Avg % Inhibition: Two Tier Assay, library MSI 26
Procedure, shortened: as §1

[3] = tested on: UEA-1 binding sites on Caco-2 cell membrane preparations; test: Competition assay of biotinylated UEA-1 binding, tier (single/two) not given; conditions: tier not printed, library TPI 1066
Protocol: The epithelial cell binding ability of compounds and mixtures obtained from synthetic combinatorial libraries was determined by competition assays. These assays were set up to measure the inhibition of binding of biotinylated UEA-1 to membrane preparations of the epithelial cell line Caco-2 (colon carcinoma cells-2), by compounds and mixtures of the combinatorial libraries. This cell line is a conventional model for epithelial cells.
Two competition inhibition assays were used in this case, namely single tier and two tier assays. These assays differed from each other in that in the single tier assay, the mixtures/compounds and the biotinylated UEA-1 were incubated together with the Caco-2 cell membrane preparations, while in case of the two-tier assay, the mixture/compounds were allowed to incubate alone with the cell membranes in the absence of biotinylated UEA-1, which was added in the next step. Addition of the extra step in the two-tier assay was to ensure that the compounds inhibiting the binding of biotinylated UEA-1 to the Caco-2 cell membranes were doing so by themselves binding to surface receptors on the Caco-2 cells and not to the biotinylated UEA-1. Each assay will be described in detail.
• 1. Confluent Caco-2 cell monolayers (grown in 75 cm^2 flasks for up to 1 week at 37° C. and 5% CO2) were washed twice in Dulbecco's PBS (DPBS). • 2. Cell monolayers were treated with 10 mM EDTA-DPBS for 5–10 min at 37° C. and cells were harvested by centrifugation at 1000 rpm for 5 min. • 3. Cells were washed 3 times in DPBS. • 4. […] The cells were homogenised for 30 sec. • 6. The homogenates were centrifuged in hard walled tubes at 40,000 rpm for 45 min at 4° C. • 7. […] The supernatant was removed and stored on ice. The procedure was repeated adding the second supernatant to the first. • 8. The protein concentration was determined using e.g. a Bio-Rad protein assay. • 9. All fractions were stored at −80° C. prior to use. Single Tier Assays: • 1. 96-well microtiter plates were coated with membrane preparations of Caco-2 cells either by allowing them to incubate on the plates for 2½ hours at room temperature or by incubating them overnight at 4° C. 100 μl of 10 μg/ml (in 0.05 M carbonate buffer, pH 9.6) of membrane preparation was added to each well. • 2. The plates were flicked out, patted dry and blocked with bovine serum albumin (BSA)/DPBS (200 μl/well) for 1 to 4 hours at room temperature after which they were washed three times in water. • 3. […] Control wells were also set up in which the Caco-2 cell membrane preparations were incubated with unconjugated UEA-1. […] Following overnight incubation the plates were washed thoroughly (3–6 times). The plates were flicked out, patted dry and biotinylated UEA-1 was detected with commercial Streptavidin conjugated to horseradish peroxidase (HRP) (CalBiochem). […] The plates were left to incubate for an hour at room temperature. • 6. The plates were then washed 3–6 times and the biotin-streptavidin binding was detected by adding an HRP substrate OPD (orthophenyl diamine) to each well. 100 μl/well of this substrate at a final concentration of 1.6 mg/ml was added to each well. Before adding to the wells, this substrate was activated by addition of 50 μl of 3% H2O2 per plate and the reaction was allowed to develop in the dark. • 7. The reaction was stopped by adding 50 μl of 4 N H2SO4 to each well after approximately 5–10 minutes or when sufficient colour had developed. The OD490 (absorbance at 490 nm) of each well was measured using a conventional 96 well plate reading spectrophotometer. Two Tier Assays: • 1. 96 well plates were coated with Caco-2 cell membrane preparations in the same manner as described in the single tier assay. • 2. […] 100 μl at these final concentrations were added to each well. • 4. The plates were then left to incubate overnight, a step that would allow the mixtures and compounds to interact with the Caco-2 cell membranes without the presence of the competitor (biotinylated UEA-1) itself. • 5. […]

[4] = Table 8, galloyl constructs, read-out: IC 50 (uM) 1st tier (converted)
[5] = Table 8, galloyl constructs, read-out: IC 50 (uM) 2nd tier
[6] = library MSI 27, read-out: Single Tier Assay IC50
[7] = 50 μg/ml, first pair of columns
[8] = 50 μg/ml, second pair of columns
[9] = 250 μg/ml, first pair of columns
[10] = 250 μg/ml, second pair of columns
[11] = library MSI 27, read-out: Two Tier Assay IC50

SMILES	IC 50 (ug/ml) 1st tier ([1]; Table 8, galloyl constructs)	IC50 [1, 4]	IC 50 (ug/ml) 2nd tier ([2]; Table 8, galloyl constructs)	IC50 [2, 5]	further results
CC(=O)NC(CNC(=O)c1cc(O)c(O)c(O)c1)C(=O)NC(CNC(=O)c1cc(O)c(O)c(O)c1)C(=O)NC(CNC(=O)c1cc(O)c(O)c(O)c1)C(N)=O (stereo not shown) [MSI 34 #13]	1st tier = 22nd tier = 2 ug/ml	3 µM	1st tier = 22nd tier = 2 ug/ml	2 µM	–
CC(=O)NC(CCNC(=O)c1cc(O)c(O)c(O)c1)C(=O)NC(CCNC(=O)c1cc(O)c(O)c(O)c1)C(=O)NC(CCNC(=O)c1cc(O)c(O)c(O)c1)C(N)=O (stereo not shown) [MSI 34 #14]	2 µg/mL (≈ 2.45 µM)	2 µM	1 µg/mL (≈ 1.23 µM)	1 µM	–
CC(=O)NC(CCCNC(=O)c1cc(O)c(O)c(O)c1)C(=O)NC(CCCNC(=O)c1cc(O)c(O)c(O)c1)C(=O)NC(CCCNC(=O)c1cc(O)c(O)c(O)c1)C(N)=O (stereo not shown) [MSI 34 #15]	8 µg/mL (≈ 9.33 µM)	9 µM	2 µg/mL (≈ 2.33 µM)	2 µM	–
CC(=O)NC(Cc1ccc(NC(=O)c2cc(O)c(O)c(O)c2)cc1)C(=O)NC(Cc1ccc(NC(=O)c2cc(O)c(O)c(O)c2)cc1)C(=O)NC(Cc1ccc(NC(=O)c2cc(O)c(O)c(O)c2)cc1)C(N)=O (stereo not shown) [MSI 34 #16]	3 µg/mL (≈ 2.99 µM)	3 µM	6 µg/mL (≈ 5.99 µM)	6 µM	–
NC(=O)C(CNC(=O)c1cc(O)c(O)c(O)c1)NC(=O)C(CNC(=O)c1cc(O)c(O)c(O)c1)NC(=O)C(CNC(=O)c1cc(O)c(O)c(O)c1)NC(=O)c1cc(O)c(O)c(O)c1 (stereo not shown) [MSI 34 #17]	1 µg/mL (≈ 1.13 µM)	1 µM	0.7 µg/mL (≈ 0.792 µM)	0.8 µM	–
NC(=O)C(CCNC(=O)c1cc(O)c(O)c(O)c1)NC(=O)C(CCNC(=O)c1cc(O)c(O)c(O)c1)NC(=O)C(CCNC(=O)c1cc(O)c(O)c(O)c1)NC(=O)c1cc(O)c(O)c(O)c1 (stereo not shown) [MSI 34 #18]	3 µg/mL (≈ 3.24 µM)	3 µM	0.9 µg/mL (≈ 0.972 µM)	1 µM	–
NC(=O)C(CCCNC(=O)c1cc(O)c(O)c(O)c1)NC(=O)C(CCCNC(=O)c1cc(O)c(O)c(O)c1)NC(=O)C(CCCNC(=O)c1cc(O)c(O)c(O)c1)NC(=O)c1cc(O)c(O)c(O)c1 (stereo not shown) [MSI 34 #19]	11 µg/mL (≈ 11.4 µM)	11 µM	1 µg/mL (≈ 1.03 µM)	1 µM	–
NC(=O)C(Cc1ccc(NC(=O)c2cc(O)c(O)c(O)c2)cc1)NC(=O)C(Cc1ccc(NC(=O)c2cc(O)c(O)c(O)c2)cc1)NC(=O)C(Cc1ccc(NC(=O)c2cc(O)c(O)c(O)c2)cc1)NC(=O)c1cc(O)c(O)c(O)c1 (stereo not shown) [MSI 34 #20]	2 µg/mL (≈ 1.8 µM)	2 µM	6 µg/mL (≈ 5.4 µM)	5 µM	–
CC(=O)N[C@@H](CNC(=O)c1cc(O)c(O)c(O)c1)C(=O)N[C@@H](CNC(=O)c1cc(O)c(O)c(O)c1)C(=O)N[C@@H](CNC(=O)c1cc(O)c(O)c(O)c1)C(=O)N[C@@H](CNC(=O)c1cc(O)c(O)c(O)c1)C(N)=O [MSI 34 #21] (Ac-[Dap](Galloyl)[Dap](Galloyl)[Dap](Galloyl)[Dap](Galloyl)-NH2)	2 µg/mL (≈ 1.98 µM)	2 µM	1 µg/mL (≈ 0.988 µM)	1 µM	–
CC(=O)NC(CCNC(=O)c1cc(O)c(O)c(O)c1)C(=O)NC(CCNC(=O)c1cc(O)c(O)c(O)c1)C(=O)NC(CCNC(=O)c1cc(O)c(O)c(O)c1)C(=O)NC(CCNC(=O)c1cc(O)c(O)c(O)c1)C(N)=O (stereo not shown) [MSI 34 #22] (Ac-[Dab](Galloyl)[Dab](Galloyl)[Dab](Galloyl)[Dab](Galloyl)-NH2; configuration not given here)	3 µg/mL (≈ 2.81 µM)	3 µM	1 µg/mL (≈ 0.936 µM)	1 µM	–
CC(=O)NC(CCCNC(=O)c1cc(O)c(O)c(O)c1)C(=O)NC(CCCNC(=O)c1cc(O)c(O)c(O)c1)C(=O)NC(CCCNC(=O)c1cc(O)c(O)c(O)c1)C(=O)NC(CCCNC(=O)c1cc(O)c(O)c(O)c1)C(N)=O (stereo not shown) [MSI 34 #23] (Ac-[Orn](Galloyl)[Orn](Galloyl)[Orn](Galloyl)[Orn](Galloyl)-NH2; configuration not given here)	6 µg/mL (≈ 5.34 µM)	5 µM	1 µg/mL (≈ 0.89 µM)	1 µM	–
NC(=O)C(CNC(=O)C(CNC(=O)c1cc(O)c(O)c(O)c1)NC(=O)c1cc(O)c(O)c(O)c1)NC(=O)CCCCCNC(=O)C(CNC(=O)c1cc(O)c(O)c(O)c1)NC(=O)c1cc(O)c(O)c(O)c1 (stereo not shown) [MSI 39 #4]	6 µg/mL (≈ 6.02 µM)	5 µM	0.8 µg/mL (≈ 0.802 µM)	0.7 µM	–
CC(=O)N[C@H](CCCCNC(=O)c1cc(O)c(O)c(O)c1)C(=O)N[C@H](CCCCNC(=O)c1cc(O)c(O)c(O)c1)C(=O)N[C@H](CCCCNC(=O)c1cc(O)c(O)c(O)c1)C(=O)N[C@H](CCCCNC(=O)c1cc(O)c(O)c(O)c1)C(N)=O [MSI 39 #12] (Ac-[dK](Galloyl)[dK](Galloyl)[dK](Galloyl)[dK](Galloyl)-NH2)	8 µg/mL (≈ 6.78 µM)	7 µM	3 µg/mL (≈ 2.54 µM)	2 µM	–
COC(=O)c1cc(O)c(O)c(O)c1 [Methyl 3,5,4-trihydroxybenzoate, reference compound]	–	–	–	–	Avg % Inhibtion ([1]; 62.5 μg/ml): 1%; Avg % Inhibtion ([1]; 250 μg/ml): 4.5%; Avg % Inhibition ([2]; 62.5 μg/ml): −11%; Avg % Inhibition ([2]; 250 μg/ml): −8%
CCOC(=O)c1c(OC)cc(C(=O)O)cc1OC [compound 5, 4-ethoxycarbonyl-3,5-dimethoxybenzoic acid]	–	–	–	–	Single Tier Assay IC50 ([1]; library MSI 27): 168.10 µg/mL; IC50 [1, 6]: 333 µM; Av % Inhibition [3, 7]: 16%; Av % Inhibition [3, 8]: 39%; Av % Inhibition [3, 9]: 54%; Av % Inhibition [3, 10]: 51%; Two Tier Assay IC50 ([2]; library MSI 27): 130.70 µg/mL; IC50 [2, 11]: 259 µM
O=C(O)c1cc(O)cc(O)c1 [compound 8, 3,5-dihydroxybenzoic acid]	–	–	–	–	Single Tier Assay IC50 ([1]; library MSI 27): 125.00 µg/mL; IC50 [1, 6]: 299 µM; Av % Inhibition [3, 7]: 59%; Av % Inhibition [3, 8]: 0%; Av % Inhibition [3, 9]: 85%; Av % Inhibition [3, 10]: 50%; Two Tier Assay IC50 ([2]; library MSI 27): 171.90 µg/mL; IC50 [2, 11]: 412 µM
COc1ccc(C(=O)O)cc1OC [compound 10, 3,4-Dimethoxybenzoic acid]	–	–	–	–	IC50 [1, 6]: 711 µM; Av % Inhibition [3, 7]: −65%; Av % Inhibition [3, 8]: 24%; Av % Inhibition [3, 9]: 41%; Av % Inhibition [3, 10]: 66%; Two Tier Assay IC50 ([2]; library MSI 27): 125.00 µg/mL; IC50 [2, 11]: 356 µM
COc1cc(C(=O)O)cc(OC)c1OC [compound 20, 3,4,5-trimethoxybenzoic acid]	–	–	–	–	IC50 [1, 6]: 212 µM; Av % Inhibition [3, 7]: −121%; Av % Inhibition [3, 8]: 52%; Av % Inhibition [3, 9]: 24%; Av % Inhibition [3, 10]: 75%; IC50 [2, 11]: 212 µM

— US7166296B2, “Pharmaceutical formulations and ligands for use therein; mimetics for UEA-1” (Sarlan, Ltd., priority 2001, dated 2007)
